# Measurements published in patent publication US20180360972A1, “THERAPEUTIC COMPOUNDS” (REGENTS OF THE UNIVERSITY OF MINNESOTA, priority 2017, published 2018).
# “Also recorded” adds a separate entry of the source.
# Assays:
# hMC4R = target: T1, hMC4R (Homo sapiens, UniProt P32245); experiment: AlphaScreen cAMP functional bioassay, hMC4R; format: cell-based; settings: HEK293 cells stably expressing hMC4R
# T1 construct: Flag; expressed in transfected cells
# [1] = target: mMC4R-NanoLuc and mMC4R-HaloTag homodimer (Mus musculus, UniProt P56450); experiment: NanoBRET ligand-dependent modulation of BRET signal; settings: ligand at 10 μM
# Protocol: On the first day, cells were plated into 6 well plates in the morning. In the afternoon of the same day, cells were transiently transfected with mMC4R-NanoLuc® fusion protein and the MC4R-HaloTag® fusion protein by adding FuGene6 Transfection (8 μL/well, Promega), DNA (2 μg/well) in OptiMem medium (Invitrogen) at a total volume of 100 μL/well. […] Cells were incubated with transfection reagent overnight at 5% CO2 at 37° C.
# This provides the background signal and was subtracted from the final experimental signal. Plates were then developed 48 to 60 hours after transfection. Two hours before the plates were developed, 10 μL of a 10× aliquot of the ligand diluted in assay buffer was added to each well to yield the final in well concentration (10^−5, 10^−7, or 10^−9M) of each compound. For the assay buffer control, 10 μL of assay buffer was added instead of compound. […] The standard error of the mean (SEM) was derived from at least three independent experiments.
# wild type mice = experiment: ICV administration, conventional cages, wild type mice; format: in vivo
# Protocol: (§1) All experiments were performed in accordance with the Institutional Animal Care and Use Committee (IACUC) at the University of Minnesota. Female and male littermates with mixed background from C57BL/6J and 129/Sv inbred strains were 8 weeks old at the time of surgeries. Mice were individually housed after surgeries and for the remainder of the experiment. Mice were maintained on a 12 hr light/dark cycle (Lights off was at 11:59 AM) in a temperature controlled room (23-25° C.). In the nocturnal feeding paradigm, mice had free access to normal chow (Harlan Teklad 2018 Diet: 18.6% crude protein, 6.2% crude fat, 3.5% crude fiber, with energy density of 3.1 kcal/g). […] Mice had free access to tap water throughout all the experiments. The cannula placement validation studies and conventional cage studies were performed in standard mouse polycarbonate conventional cages provided by University of Minnesota's Research Animal Resources (RAR). Weekly cage changes were conducted by lab research staff.
# (§2) Mice were anesthetize with a mixture of ketamine (100 mg/kg) and xylazine (5 mg/kg) and were positioned in a stereotaxic apparatus (David Kopf Instruments). A 26-gauge cannula (Cat# 81C315GS4SPC; PlasticsOne, Roanoke, Va.) was inserted in the lateral cerebral ventricle at the coordinates 1.0 mm lateral and 0.46 mm posterior to bregma and 2.3 mm ventral to the skull (Franklin, K. B. J. & Paxinos, G. The Mouse Brain in Stereotaxic Coordinates. (Academic Press, 1997)).
# Each mouse was administered hPYY and saline on different days following a crossover design in the nocturnal feeding paradigm. In the nocturnal paradigm, compound is administered 2 hours prior to lights out with free access to food and water throughout the entire experiment. There was at least a 4 day washout period between administration to ensure that normal feeding patterns and body weight returned. Food intake and body weight were manually measured 2, 4, and 6 hours after hPYY or saline administration. A mouse with a validated cannula placement for the TSE cage experiments consumed at least 1.0 g more after hPYY administration compared to saline administration 4 hours post-administration.
# (§3) As stated above, conventional cage experiments were performed in standard mouse polycarbonate conventional cages. […] All experiments followed a cross-over paradigm in which the mouse received saline and compound on different days with a washout period in between each treatment. Statistical analysis was performed using SPSS V23 software (IBM) using a multivariate general linear model followed by a Bonferroni's post hoc test. Results are presented as Mean±SEM. Statistically significant was considered p<0.05.
# male MC3RKO mice = experiment: ICV administration, TSE metabolic cages, male MC3RKO mice; format: in vivo
# Protocol: as §1, §2, §3
# In order to more clearly understand the effects of the biased agonism at the MC4R, the effects of administration of CJL-5-58 was explored in MC3R knockout (KO) mice and MC4RKO mice. […] Adverse reactions included two mice dying after the 5 nmol dose. […] The large error in activity may serve as an indication of toxicity. It is currently difficult to decipher whether the adverse reactions observed are due to paradigm effects, genotype difference, or compound toxicity.
# [2] = fasting-refeeding, time after administration
# [3] = nocturnal free-feeding paradigm, 5.0 nmol ICV
# [4] = nocturnal paradigm, 1 nmol dose
# mMC4R-NanoLuc and mMC4R-HaloTag homodimer, sequence (P56450 whole entry): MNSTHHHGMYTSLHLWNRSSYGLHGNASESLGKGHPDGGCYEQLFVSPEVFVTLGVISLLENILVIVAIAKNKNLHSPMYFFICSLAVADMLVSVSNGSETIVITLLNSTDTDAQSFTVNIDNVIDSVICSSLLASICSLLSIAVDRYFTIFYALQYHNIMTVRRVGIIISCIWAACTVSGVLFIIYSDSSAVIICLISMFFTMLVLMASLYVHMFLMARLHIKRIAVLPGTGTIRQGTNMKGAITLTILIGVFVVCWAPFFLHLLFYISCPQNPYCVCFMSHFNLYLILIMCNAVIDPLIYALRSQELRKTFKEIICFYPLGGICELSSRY
# mMC4R-NanoLuc and mMC4R-HaloTag homodimer, sequence (P56450 whole entry): as above
# T1 sequence (P32245 whole entry): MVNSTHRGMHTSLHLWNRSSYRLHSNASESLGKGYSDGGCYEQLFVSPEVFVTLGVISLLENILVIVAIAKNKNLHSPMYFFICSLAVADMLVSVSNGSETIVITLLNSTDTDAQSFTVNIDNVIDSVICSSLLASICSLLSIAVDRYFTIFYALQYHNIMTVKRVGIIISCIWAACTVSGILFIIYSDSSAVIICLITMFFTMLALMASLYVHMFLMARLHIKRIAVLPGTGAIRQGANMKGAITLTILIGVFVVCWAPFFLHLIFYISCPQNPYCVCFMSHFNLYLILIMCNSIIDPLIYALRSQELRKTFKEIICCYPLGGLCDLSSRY
smiles,measurement,setting,value
"CC(=O)N[C@@H](Cc1cnc[nH]1)C(=O)N[C@H](Cc1ccccc1)C(=O)N[C@@H](CCCNC(=N)N)C(=O)N[C@@H](Cc1c[nH]c2ccccc12)C(=O)NCCCOCCOCCOCCCNC(=O)COCC(=O)N[C@@H](Cc1cnc[nH]1)C(=O)N[C@H](Cc1ccc2ccccc2c1)C(=O)N[C@@H](CCCNC(=N)N)C(=O)N[C@@H](Cc1c[nH]c2ccccc12)C(N)=O [CJL-5-58, Ac-His-DPhe-Arg-Trp-(PEDG20)-His-DNal(2′)-Arg-Trp-NH2]",cAMP agonist potency (in words),hMC4R,single digit nanomolar agonists
same,reduction in BRET signal compared to basal signal,[1],~8%
same,adverse effects,"wild type mice; ICV 2.5 nmols and 5.0 nmols, conventional cages",no signs of adverse effects
same,"change in body weight vs saline, female mice",wild type mice; fasting-refeeding,Only the 2 hour time point was significant
same,"change in body weight vs saline, male mice",wild type mice; fasting-refeeding,"significant difference was observed in the change in weight of the male mice after compound administration at time points 2, 4, 6, 8, and 24 hours"
same,food intake,"wild type mice; fasting-refeeding after 22 hour fast, ICV dose response",dose dependent decrease in food intake; also recorded: reduce food intake
same,"food intake vs saline, female mice (time points of significant decrease)",wild type mice; [2],2 and 4 hours
same,"food intake vs saline, male mice",wild type mice; [2],"Significant decreased food intake was observed at 2, 4, 6, and 8 hours; also recorded: Significant decreases in food intake were observed at 2, 4, 6, and 8 hours"
same,body weight vs saline,wild type mice; [3],no statistically significant effect
same,food intake vs saline,wild type mice; [3],no statistically significant effect
same,RER vs saline,"male MC3RKO mice; fasting-refeeding, 0.5 nmol",significant increase in RER at time point 24 hours
same,other parameters vs saline,"male MC3RKO mice; fasting-refeeding, 0.5 nmols",No other parameters were significantly affected
same,RER vs saline,"male MC3RKO mice; fasting-refeeding, 1 nmol",significantly reduced at 2 and 3 hours
same,energy expenditure vs saline,"male MC3RKO mice; fasting-refeeding, 1 nmol",Significant reductions in energy expenditure were observed in the fasting paradigm at time points 1 and 2 hours
same,food intake vs saline,"male MC3RKO mice; fasting-refeeding, 1.0 nmol",Significant reduction in food intake was observed at 2 and 4 hour time points
same,adverse reactions / toxicity,"male MC3RKO mice; fasting-refeeding, 1.0 or 0.5 nmols",some minor signs of adverse reactions; also recorded: Some toxicity was observed
same,adverse reactions,male MC3RKO mice; [4],No adverse reactions were observed
same,effects on measured parameters vs saline,male MC3RKO mice; [4],no significant effects were observed
same,RER vs saline,"male MC3RKO mice; nocturnal paradigm, 2.5 nmol","significant increased RER was observed 18, 19, and 24 hours"
same,energy expenditure vs saline,"male MC3RKO mice; nocturnal paradigm, 2.5 nmol",significant reduced 1-8 and 13 hours post-treatment
same,energy expenditure vs saline,"male MC3RKO mice; nocturnal paradigm, 5 nmol",significantly reduced at time points 1-3 hrs
same,food intake vs saline,"male MC3RKO mice; nocturnal paradigm, 5 nmol",decreased at time points 2-12 hours
same,number of mice dying,"male MC3RKO mice; nocturnal paradigm, 5 nmol dose",two
same,activity vs saline,"male MC3RKO mice; nocturnal paradigm, 5 nmols",trended towards being lowered (p=0.069)
same,RER vs saline,"male MC3RKO mice; nocturnal paradigm, 5 nmols (dose not restated for CJL-5-58)","significantly decreased at time points 1-5, 8 and 12 hours"
same,adverse reactions / toxicity,"male MC3RKO mice; nocturnal paradigm, 2.5 to 5 nmols",adverse reactions were also observed at the 2.5 and 5 nmol concentrations; also recorded: Some toxicity was observed
